# Measured values as given in paper PMC7747594, “Protease-activated receptor-2 ligands reveal orthosteric and allosteric mechanisms of receptor inhibition” (Communications Biology, 2020).
# “And” between values parts separate entries of the source, which are not always exact repeats. Identical values can stand only once. “Also recorded” adds a separate entry of the source. Like-named read-outs stand apart in the source and are kept apart here.
# Legend:
# [1] = biological target: T1, hPAR2 (Homo sapiens, UniProt P55085); assay: Ca^2+ flux assay, agonist mode, 1321N1-hPAR2 cells; type: cell-based; conditions: for Ca^2+ mobilisation tested as agonist, Fig 1c source data: log[compound], individual data points
# T1 sequence (P55085 26-397): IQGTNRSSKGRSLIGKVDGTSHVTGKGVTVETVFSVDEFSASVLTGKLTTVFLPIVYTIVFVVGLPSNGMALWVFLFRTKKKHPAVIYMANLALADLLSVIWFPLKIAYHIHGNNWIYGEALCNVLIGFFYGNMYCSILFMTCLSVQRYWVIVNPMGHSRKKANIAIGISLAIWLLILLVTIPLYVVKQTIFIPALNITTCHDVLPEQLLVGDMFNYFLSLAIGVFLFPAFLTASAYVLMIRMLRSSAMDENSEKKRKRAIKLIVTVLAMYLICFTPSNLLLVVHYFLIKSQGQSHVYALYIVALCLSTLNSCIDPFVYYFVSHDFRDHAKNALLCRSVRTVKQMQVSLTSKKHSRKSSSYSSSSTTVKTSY
# Protocol: (§1) Cells were loaded with Fluo-8 NW calcium dye (AAT Bioquest) for 30 min at 37 °C before compounds in Hank’s balanced salt solution (HBSS, ThermoFisher Scientific) with 20 mM HEPES (ThermoFisher Scientific), 0.1% bovine serum albumin (BSA, Sigma) and 0.5% DMSO were added and simultaneously evaluated for changes in intracellular [Ca^2+] using FLIPR TETRA (Molecular Devices) to detect agonism. For each concentration, the difference between the maximum peak Ca^2+ response and baseline response is reported. […] Antagonism experiments were also carried out on 1321N1-PAR2[WT], 1321N1-PAR2[F154A], and 1321N1-PAR2[G157C] as described. Experiments with trypsin in 1321N1-hPAR2 cells were performed in the presence of 1 µM Vorapaxar (Chemtronica) to remove any interference of PAR1 activity. […] Antagonism experiments for CHO-hPAR2 and HT-29 cells were performed in 96-well plates at 30,000 cells/well. Cells were loaded with Fluo-3 AM calcium dye (Sigma-Aldrich) for 60 min at 37 °C in HBSS with 1% FBS, 0.2% pluronic acid, 20 mM HEPES and 2.5 mM probenecid prior to the addition of antagonist. The antagonist was pre-incubated for 60 min at 37 °C followed by the addition of bovine trypsin (30 nM) at EC80. Intracellular [Ca^2+] flux was measured using FLIPR TETRA (Molecular Devices) and the difference between the maximum peak Ca^2+ response and baseline response is reported.
# (§2) Binding data were analysed using the One site – Fit Ki model in GraphPad Prism 8 (GraphPad Software) to determine binding affinity. Pharmacology in vitro potency data was analysed with a 4-parameter logistic fit using the equation y = Bottom + (Top − Bottom)/[…] where y is the response, x is the 10-logarithm of the drug concentration, Bottom is no response and Top is full response in GraphPad Prism 8 or Genedata Screener (Genedata). pEC50 and pIC50 data are presented as mean ± standard error of the mean (s.e.m.) derived from the number of independent experiments stated. Schild slope analysis was calculated using Graphpad Prism 8 Gaddum/Schild EC50 global fitting (shared model parameters between all data sets) competitive model. […] Schild slope quantifies the shifts in agonist response in the presence of antagonist, a Schild slope of 1 indicates the antagonist is competitive and extra-sum-of-squares F-test (p < 0.05) was used to compare the calculated Schild slope against a hypothetical Schild slope of 1. […] The relative activity was calculated using (EmaxEC50’)/(Emax’EC50) with the Hill slope help constant at 1. EC50’ and Emax’ denote the EC50 and Emax in the absence of allosteric modulator, while EC50 and Emax denote those measured in the presence of allosteric modulator. When the Hill slope = 1, the relative activity plot approaches an asymptote corresponding to the estimate of the γ value.
# [2] = biological target: T1, hPAR2; assay: Ca^2+ flux assay (FLIPR), inhibition of SLIGRL-NH2 activation in 1321N1-hPAR2 cells; type: cell-based
# Protocol: as §1, §2
# [3] = biological target: T1, hPAR2; assay: Ca^2+ flux assay, inhibition of trypsin activation in 1321N1-hPAR2 cells (with 1 µM Vorapaxar); type: cell-based
# [4] = biological target: T1, hPAR2; assay: pERK1/2 HTRF assay, inhibition of SLIGRL-NH2 in U2OS-hPAR2 cells; type: cell-based
# Protocol: Phosphorylation of ERK1/2 was measured in U2OS-hPAR2 cells using Phospho-ERK1/2 (Thr202/Tyr204) assay kit (64ERKPEH Cisbio) and the 2 plate manufacturer’s protocol with the following modifications. Cells were seeded in McCoy’s 5A media containing 10% FBS at 15,000 cells per well in 384-well plates and incubated overnight at 37 °C, 5% CO2. Antagonist compounds (30 µM–1 nM) were incubated with the cells for 30 min prior to the addition of agonist SLIGRL-NH2 (10 µM) at EC80 and further incubation for 5 min at 37 °C. The supernatant was removed from the wells and lysis buffer was added to the cells and incubated with shaking at room temperature for 30 min. The cell lysate was transferred into a small-volume 384-well plate containing detection antibodies and incubated for 4 h at room temperature in the dark. Plates were read for HTRF signal on PHERAstar (BMG LabTech). In addition, phosphorylation of ERK1/2 was measured in CHO-hPAR2 using AlphaLISA SureFire Ultra pERK1/2 (Thr202/Tyr204) (Perkin Elmer). Cells were seeded at a density of 2000 cells per well in a 384-well proxiplate and incubated overnight. […] After incubation, cell lysis buffer was added with shaking for 30 min. Antibodies and beads were added and incubated for 4 h at room temperature. AlphaLISA signal was measured using a PHERAstar (BMG LabTech).
# as §2
# [5] = biological target: T1, hPAR2; assay: Europium-tagged competition binding assay against Eu-tagged-2f-LIGRLO(dtpa)-NH2 on CHO-hPAR2 cells; design: expressed in transfected cells; host or cells: Flp-In CHO
# Protocol: CHO-hPAR2 cells were seeded overnight in 384-well plate at 2.5 × 10^4 cells/well and blocked with 2% BSA for 60 min. […] Cells were washed 3× with PBS supplemented with 20 µM EDTA, 0.01% Tween and 0.2% BSA followed by addition of DELFIA Enhancement Solution (Perkin Elmer) for 90 min. Time-resolved fluorescence was measured with PHERAstar FS reader (BMG Labtech).
# as §2
smiles,measurement,setting,value
CCCc1cc(F)ccc1C(O)c1ncc[nH]1 (centres unmarked) [AZ8838],"Ca^2+ mobilisation tested as agonist, Fig 1c source data",[1]; M -4.38018,2.862 and -0.09582 and -3.103 and -1.512 and -1.8855
same,"Ca^2+ mobilisation tested as agonist, Fig 1c source data",[1]; M -4.88008,-0.3654 and 0.4152 and -1.57 and -6.425 and -2.983
same,"Ca^2+ mobilisation tested as agonist, Fig 1c source data",[1]; M -5.38018,1.583 and 0.2874 and -4.491 and -0.4535 and -1.063
same,"Ca^2+ mobilisation tested as agonist, Fig 1c source data",[1]; M -5.88008,3.532 and 5.014 and 4.491 and 1.663 and -0.1714
same,"Ca^2+ mobilisation tested as agonist, Fig 1c source data",[1]; M -6.38007,1.035 and 1.437 and 3.98 and 0.4535 and 1.817
same,"Ca^2+ mobilisation tested as agonist, Fig 1c source data",[1]; M -6.88008,1.705 and 1.246 and -5.002 and 2.343 and 3.3939
same,"Ca^2+ mobilisation tested as agonist, Fig 1c source data",[1]; M -7.37997,2.862 and -1.309 and -0.8397 and 2.948 and 1.406
same,"Ca^2+ mobilisation tested as agonist, Fig 1c source data",[1]; M -7.88008,2.375 and -2.268 and 1.1318 and 4.308 and 1.268
same,"Ca^2+ mobilisation tested as agonist, Fig 1c source data",[1]; M -8.37986,-1.218 and 0.543 and 2.665 and 1.436 and 3.188
same,"Ca^2+ mobilisation tested as agonist, Fig 1c source data",[1]; M -8.87976,4.6285 and 0.6707 and 4.491 and -8.012 and -2.845
same,agonist activity (tested as agonists),[1]; Ca^2+ assay and other signalling assays,no effect; also recorded: no agonist activity
same,IC50,[2],2 µM
same,remaining activity at 1.318 µM,"[2]; read-out: SLIGRL-NH2 Ca^2+ mobilisation, antagonist response, Fig 1c source data, log[compound], M -5.88008, individual data points",77.3%
same,remaining activity at 0.4168 µM,"[2]; read-out: SLIGRL-NH2 Ca^2+ mobilisation, antagonist response, Fig 1c source data, log[compound], M -6.38007, individual data points",83%
same,remaining activity at 0.1318 µM,"[2]; read-out: SLIGRL-NH2 Ca^2+ mobilisation, antagonist response, Fig 1c source data, log[compound], M -6.88008, individual data points",101%
same,remaining activity at 0.04169 µM,"[2]; read-out: SLIGRL-NH2 Ca^2+ mobilisation, antagonist response, Fig 1c source data, log[compound], M -7.37997, individual data points",90.3%
same,remaining activity at 0.01318 µM,"[2]; read-out: SLIGRL-NH2 Ca^2+ mobilisation, antagonist response, Fig 1c source data, log[compound], M -7.88008, individual data points",91.2%
same,remaining activity at 0.00417 µM,"[2]; read-out: SLIGRL-NH2 Ca^2+ mobilisation, antagonist response, Fig 1c source data, log[compound], M -8.37986, individual data points",97.2%
same,remaining activity at 0.001319 µM,"[2]; read-out: SLIGRL-NH2 Ca^2+ mobilisation, antagonist response, Fig 1c source data, log[compound], M -8.87976, individual data points",102%
same,IC50,[3],3.98 µM
same,shape of inhibition of trypsin-induced Ca^2+ mobilisation,"[3]; 1321N1-hPAR2 cells, 1 µM Vorapaxar",sigmoidal and monophasic
same,remaining activity at 1.318 µM,"[3]; read-out: trypsin Ca^2+ mobilisation, antagonist response, Fig 1g source data, log[compound], M -5.88008, individual data points",86.9%
same,remaining activity at 0.1318 µM,"[3]; read-out: trypsin Ca^2+ mobilisation, antagonist response, Fig 1g source data, log[compound], M -6.88008, individual data points",93.7%
same,remaining activity at 0.04169 µM,"[3]; read-out: trypsin Ca^2+ mobilisation, antagonist response, Fig 1g source data, log[compound], M -7.37997, individual data points",93.1%
same,remaining activity at 0.01318 µM,"[3]; read-out: trypsin Ca^2+ mobilisation, antagonist response, Fig 1g source data, log[compound], M -7.88008, individual data points",97.5%
same,IC50,[4],2 µM
same,remaining activity at 3.33 µM,"[4]; read-out: SLIGRL-NH2 phosphorylation of ERK1/2, antagonist response, Fig 1e source data, log[compound], M -5.47756, individual data points",40.4%
same,Ki,"[5]; against Eu-tagged-2f-LIGRLO(dtpa)-NH2, CHO-hPAR2 cells, mean ± s.e.m., read-out: Competition Binding (hPAR2) pKi (converted)",6.31 µM
same,Ki,"[5]; earlier manuscript version quoted by reviewer, read-out: Ki",3.6 µM
